Laboratory results taken from PMC3592791, “Fluorescence-Based High-Throughput Functional Profiling of Ligand-Gated Ion Channels at the Level of Single Cells” (PLoS ONE, 2013).

Tests used:
[1] = biological target: T1, α1 GlyR (Homo sapiens, UniProt P23415); type: cell-based
T1 construct: expressed in transfected cells; host or cells: HEK293
T1 sequence (P23415 29-457): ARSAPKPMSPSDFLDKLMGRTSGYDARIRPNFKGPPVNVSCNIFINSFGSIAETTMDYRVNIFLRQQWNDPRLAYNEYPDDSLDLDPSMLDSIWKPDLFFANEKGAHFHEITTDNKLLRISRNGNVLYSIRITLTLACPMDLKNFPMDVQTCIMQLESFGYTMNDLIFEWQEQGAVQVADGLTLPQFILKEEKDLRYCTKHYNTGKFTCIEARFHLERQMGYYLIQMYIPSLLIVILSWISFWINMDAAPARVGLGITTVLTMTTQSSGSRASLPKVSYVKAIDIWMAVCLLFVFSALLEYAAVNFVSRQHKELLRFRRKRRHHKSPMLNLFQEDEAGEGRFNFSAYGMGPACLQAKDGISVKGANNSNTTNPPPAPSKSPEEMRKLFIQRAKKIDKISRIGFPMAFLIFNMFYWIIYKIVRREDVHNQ
Method: (§1) plated into 60-mm culture dishes and were transfected when approx. 80% confluent. YFP and GlyR chloride channel subunits were transfected in 1∶1 (YFP and α1-3 GlyR homomers) or 2∶1∶1 ratio (YFP, GlyR α1-3 homo and α1-3β GlyR heteromers) with a total cDNA quantity of 1 µg. Cells were transfected using calcium phosphate precipitation transfection technique, as described in Sambrook et al.. […] We have published a detailed comparison of five transient transfection methods employed routinely in the laboratory for this purpose.
(§2) The human α1, α2 and α3 GlyR plasmid DNAs were subcloned into the pcDNA3.1 plasmid vector and the human β subunit plasmid DNA was subcloned into pIRES2-EGFP plasmid vector. The UniprotKB accession numbers for the DNAs are as follows (with gene name in brackets): α1 (GLRA1): P23415, α2 (GLRA2): P23416, α3 (GLRA3): O75311 and β(GLRB): P48167.
(§3) Following termination of transfection, cells were trypsinized by adding 0.7 mL of 0.25% trypsin–EDTA solution (Gibco BRL), resuspended into DMEM, and 2.5×10^3 cells, suspended in 40 µL DMEM, were plated into each well of a transparent 384-well plate for fluorescence imaging experiments. Cells were used in experiments 24 h later. Individual wells typically contained 5×10^3 cells at the time of the experiment. Approximately 1 h prior to commencement of experiments culture media in 384-well plates were removed by turning the plate upside-down onto a stack of tissue and were left for approximately 30 sec until culture media was entirely removed from the wells. The culture media was replaced by 20 µL standard control solution, which contained (in mM) NaCl 140, KCl 5, CaCl2 2, MgCl2 1, HEPES 10, and glucose 10 (pH 7.4) using NaOH. […] For drug screening experiments agonist solutions were supplemented with strychnine (10, 30, 100 µM), picrotoxin (10, 100 µM) and lindane (10, 100 µM) respectively. Drugs were diluted from stocks in agonist solution according to desired final concentrations. […] Experiments were conducted at room temperature (19–22°C).
(§4) The maximum image acquisition rate was 1.25 Hz. Solutions containing agonist and drug were pipetted into a 384-well plate and placed onto LC PAL sample holder platform. Liquid handling was performed with the autosampler described above. Solutions were applied to cells at a rate of 0.6 ml/min.
(§5) Images of fluorescent cells were segmented and quantitatively analyzed using a modified version of DetecTIFF® software. In brief, images were segmented using an iterative size and intensity-based thresholding algorithm and the fluorescence signal of identified cells was calculated as the mean of all pixel values within the area of a cell.
(§6) This VI uses the Levenberg-Marquardt algorithm to determine the set of parameters that best fit the set of input data points (X, Y) as expressed by the nonlinear function: [drawing 1] where a is the set of parameters. The curve model is defined by the following equation: […]

[2] = biological target: T2, α2 GlyR (Homo sapiens, UniProt P23416); type: cell-based
T2 construct: expressed in transfected cells; host or cells: HEK293
T2 sequence (P23416 28-452): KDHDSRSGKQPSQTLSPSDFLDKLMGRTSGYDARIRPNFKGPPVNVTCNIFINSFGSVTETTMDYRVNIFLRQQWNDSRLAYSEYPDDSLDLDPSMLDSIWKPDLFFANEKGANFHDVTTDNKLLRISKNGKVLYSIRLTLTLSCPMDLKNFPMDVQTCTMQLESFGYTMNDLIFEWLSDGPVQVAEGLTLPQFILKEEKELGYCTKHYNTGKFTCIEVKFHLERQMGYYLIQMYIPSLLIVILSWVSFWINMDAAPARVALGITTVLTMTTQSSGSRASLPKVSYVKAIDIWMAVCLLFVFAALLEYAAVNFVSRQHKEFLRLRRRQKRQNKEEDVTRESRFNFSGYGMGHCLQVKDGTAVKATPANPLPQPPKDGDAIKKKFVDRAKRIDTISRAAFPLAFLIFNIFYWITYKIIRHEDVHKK
Method: as §1, §2, §3, §4, §5, §6

[3] = biological target: T3, α3 GlyR (Homo sapiens, UniProt O75311); conditions: Fig. 3A
T3 sequence (O75311 34-464): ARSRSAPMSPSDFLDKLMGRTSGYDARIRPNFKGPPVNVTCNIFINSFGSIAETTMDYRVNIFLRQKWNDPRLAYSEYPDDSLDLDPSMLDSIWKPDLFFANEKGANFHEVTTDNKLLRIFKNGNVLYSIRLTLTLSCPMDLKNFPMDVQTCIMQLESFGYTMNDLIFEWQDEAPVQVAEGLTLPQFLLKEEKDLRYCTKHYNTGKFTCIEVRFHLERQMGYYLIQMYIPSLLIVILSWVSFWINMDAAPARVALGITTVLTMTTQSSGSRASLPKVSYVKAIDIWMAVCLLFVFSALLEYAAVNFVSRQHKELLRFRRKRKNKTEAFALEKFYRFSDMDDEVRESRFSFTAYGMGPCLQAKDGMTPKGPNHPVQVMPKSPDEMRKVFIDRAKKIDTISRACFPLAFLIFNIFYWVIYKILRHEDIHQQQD
Method: plated into 60-mm culture dishes and were transfected when approx. 80% confluent. YFP and GlyR chloride channel subunits were transfected in 1∶1 (YFP and α1-3 GlyR homomers) or 2∶1∶1 ratio (YFP, GlyR α1-3 homo and α1-3β GlyR heteromers) with a total cDNA quantity of 1 µg. Cells were transfected using calcium phosphate precipitation transfection technique, as described in Sambrook et al. [37]. Transfection efficiency varies from 20 to 60%. We routinely achieve a correlation of 80 to 90% between cells expressing YFP and cells expressing GlyRs.
Following termination of transfection, cells were trypsinized by adding 0.7 mL of 0.25% trypsin–EDTA solution (Gibco BRL), resuspended into DMEM, and 2.5×10^3 cells, suspended in 40 µL DMEM, were plated into each well of a transparent 384-well plate for fluorescence imaging experiments. Cells were used in experiments 24 h later. Individual wells typically contained 5×10^3 cells at the time of the experiment. Approximately 1 h prior to commencement of experiments culture media in 384-well plates were removed by turning the plate upside-down onto a stack of tissue and were left for approximately 30 sec until culture media was entirely removed from the wells. […]
(§9) Images of fluorescent cells were segmented and quantitatively analyzed using a modified version of DetecTIFF® software [40]. In brief, images were segmented using an iterative size and intensity-based thresholding algorithm and the fluorescence signal of identified cells was calculated as the mean of all pixel values within the area of a cell.
• Goodness of fit (R^2, ≥0.9), to include curve fits that represent the data points to a high degree. • Dynamic range of fluorescence change (ΔF, 20–100%), to include cells co-expressing both, YFPI152L and GlyRs.
Filter ranges for enrichment of functional data were determined empirically by biological relevance.

[4] = biological target: T4, α3β GlyR (Homo sapiens, UniProt O75311+P48167); conditions: read-out: Median half-maximal activation by glycine (EC50), control conditions; no drug, Fig. 4F, n = 122
T4 sequence (P48167 23-497, one chain of several): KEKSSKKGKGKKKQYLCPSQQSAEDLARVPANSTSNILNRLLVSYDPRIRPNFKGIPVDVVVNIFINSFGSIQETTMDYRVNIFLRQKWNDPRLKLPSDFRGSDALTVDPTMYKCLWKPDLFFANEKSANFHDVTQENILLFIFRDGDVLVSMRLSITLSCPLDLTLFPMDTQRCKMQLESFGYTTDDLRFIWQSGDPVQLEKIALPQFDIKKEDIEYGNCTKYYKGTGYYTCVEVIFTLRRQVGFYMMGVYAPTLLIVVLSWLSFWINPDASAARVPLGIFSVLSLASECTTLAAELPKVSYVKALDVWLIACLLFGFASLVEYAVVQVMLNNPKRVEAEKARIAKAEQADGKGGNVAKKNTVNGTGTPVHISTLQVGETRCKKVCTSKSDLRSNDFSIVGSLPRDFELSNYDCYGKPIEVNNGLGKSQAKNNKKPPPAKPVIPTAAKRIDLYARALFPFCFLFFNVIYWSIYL
Method: plated into 60-mm culture dishes and were transfected when approx. 80% confluent. YFP and GlyR chloride channel subunits were transfected in 1∶1 (YFP and α1-3 GlyR homomers) or 2∶1∶1 ratio (YFP, GlyR α1-3 homo and α1-3β GlyR heteromers) with a total cDNA quantity of 1 µg. Cells were transfected using calcium phosphate precipitation transfection technique, as described in Sambrook et al. [37]. Transfection efficiency varies from 20 to 60%. We routinely achieve a correlation of 80 to 90% between cells expressing YFP and cells expressing GlyRs. […]
Following termination of transfection, cells were trypsinized by adding 0.7 mL of 0.25% trypsin–EDTA solution (Gibco BRL), resuspended into DMEM, and 2.5×10^3 cells, suspended in 40 µL DMEM, were plated into each well of a transparent 384-well plate for fluorescence imaging experiments. […]
as §9
• Goodness of fit (R^2, ≥0.9), to include curve fits that represent the data points to a high degree. • Dynamic range of fluorescence change (ΔF, 20–100%), to include cells co-expressing both, YFPI152L and GlyRs. […]

[5] = biological target: T5, α2β GlyR (Homo sapiens, UniProt P23416+P48167); type: cell-based; conditions: drugs at 10 and 100 µM, Fig. 6A
T5 construct: expressed in transfected cells; host or cells: HEK293
T5 sequence (P48167 23-497, one chain of several): as above
Method: as §1, §2, §3, §4, §5, §6

[6] = biological target: T2, α2 GlyR; test: Whole-cell patch-clamp electrophysiology, α2 GlyR; type: cell-based; conditions: read-out: % block of EC50 glycine current; 100 µM lindane, HEK293 cells, -40 mV, 4–7 cells, Fig. 5B
Method: (§7) Cells were transfected as described above and plated onto glass coverslips in 3 cm culture dishes. Coverslips containing cells were placed in a recording chamber on the stage of an inverted fluorescent microscope and currents were recorded using the whole-cell patch-clamp configuration. Cells were perfused by extracellular solution containing (in mM): 140 NaCl, 5 KCl, 2 CaCl2, 1 MgCl2, 10 HEPES/NaOH and 10 glucose (pH 7.4 adjusted with NaOH). Patch pipettes were fabricated from borosilicate hematocrit tubing (Hirschmann Laborgeraete, Eberstadt, Germany) and heat polished. […] After establishment of the whole-cell recording configuration, cells were voltage clamped at −40 mV and membrane currents were recorded using an Axopatch 1D and pClamp 10 software (Molecular Devices). Currents were filtered at 500 Hz and digitized at 2 KHz.
(§8) Because αsubunits can form functional receptors with or without β subunits, it was necessary to confirm that the expressed receptors incorporated β subunits. As the GlyR β subunit cDNA was cloned into the pIRES2-EGFP plasmid vector, we used green fluorescent protein fluorescence to identify cells transfected with the GlyR β subunit. The successful incorporation of β subunits into functional heteromeric GlyRs was also confirmed pharmacologically by their characteristic reduction in […] sensitivity as described below.

[7] = biological target: T5, α2β GlyR; test: Whole-cell patch-clamp electrophysiology, α2β GlyR; type: cell-based; conditions: read-out: % block of EC50 glycine current; 100 µM lindane, HEK293 cells, -40 mV, 4–7 cells, Fig. 5B
Method: as §7, §8

[8] = biological target: T3, α3 GlyR; test: Whole-cell patch-clamp electrophysiology, α3 GlyR; type: cell-based; design: expressed in transfected cells; host or cells: HEK293; conditions: read-out: % block of EC50 glycine current; 100 µM lindane, HEK293 cells, -40 mV, 4–7 cells, Fig. 5B
Method: as §7, §8

[9] = biological target: T4, α3β GlyR; test: Whole-cell patch-clamp electrophysiology, α3β GlyR; type: cell-based; design: expressed in transfected cells; host or cells: HEK293; conditions: read-out: % block of EC50 glycine current; 100 µM lindane, HEK293 cells, -40 mV, 4–7 cells, Fig. 5B
Method: as §7, §8

With `NCC(=O)O` [glycine] the “Slope value, averaged” value [1] was 1.19±0.03, the “Slope values, range over single cells” value [1] was 0.47–1.92 and the “Slope value, averaged” value [2] was 2.92±0.09. For the same molecule, the “Slope values, range over single cells” value [2] was 0.51–4.73, the “Slope value, averaged” value ([3]; glycine dose-response) was 0.91±0.03 and the “Slope values, range over single cells” value ([3]; glycine dose-response) was 0.39–3.43. It also gave an EC50 ([3]; read-out: Averaged glycine EC50, HEK293 cells, individual well, n = 212 cells) of 186 ± 17 µM and an EC50 [4] of 46.8 ± 4 µM.

`Cl[C@H]1[C@H](Cl)[C@@H](Cl)[C@@H](Cl)[C@H](Cl)[C@H]1Cl` [lindane, γ-hexachlorocyclohexane] was tested, and the “Effect on receptor (color map of median glycine EC50)” value (“Effect on receptor” for short) [5] was “no inhibition”, the inhibition at 100 µM [6] was 94 ± 5% and the inhibition at 100 µM [7] was 23 ± 4%. It also gave an inhibition at 100 µM [8] of 96 ± 4% and an inhibition at 100 µM [9] of 14 ± 3%.

`O=C1C[C@@H]2OCC=C3CN4CC[C@]56c7ccccc7N1[C@H]5[C@H]2[C@H]3C[C@H]46` [strychnine] was tested, and the “Effect on receptor” value [5] was “inhibition”.

For picrotoxin, the “Effect on receptor” value ([2]; drugs at 10 and 100 µM, Fig. 6A) was “overall less block of homomeric α2 GlyRs by picrotoxin compared to lindane” and the “Effect on receptor” value [5] was “no inhibition”.
